Results on 52 compounds are retold here after PubChem BioAssay AID1996.

Converted amounts (≈) assume the structure as drawn.

The conditions of this data set: buffer; pH 7.4; 200.0 µM.
The solubility (kinetic) is solubility judged after dilution from a stock solution rather than from solid. On to `CCc1ccc(N2CC(C(=O)NCCC3=CCCCC3)CC2=O)cc1` (configuration not stated), for which the kinetic solubility came out at 6.8 µg/mL (≈ 20 µM).
Then `O=C(Nc1ccccc1F)c1ccc2ncsc2c1`, with over 40.8 µg/mL.
Regarding `Cc1onc(-c2ccccc2)c1C(=O)NCCSCc1ccco1`, the kinetic solubility was over 51.4 µg/mL.
The result for `O=C(OC1CCOC1=O)c1cc(Cl)ccc1[N+](=O)[O-]` (configuration not stated) reads 42.1 µg/mL (≈ 147 µM); that for `COc1cc(-n2c(C)nc3cccnc32)c(Cl)cc1C(=O)O`, over 47.7 µg/mL.
In turn, `Cc1cccc(CCNCc2cc3cccc(C)c3[nH]c2=O)c1` returned a solubility (kinetic) of 45.9 µg/mL (≈ 150 µM).
For `Cc1oncc1C(=O)NC1CCCCC1`, the kinetic solubility was over 31.2 µg/mL.
In the case of `O=C1C2C3C=CC(CC3)C2C(=O)N1c1ccccc1[N+](=O)[O-]` (configuration not stated), the kinetic solubility stood at 14.5 µg/mL (≈ 48.6 µM).
The result for `COc1ccc(NC(=O)c2oc3ccccc3c2C)cn1` reads 4 µg/mL (≈ 14.2 µM).
Regarding `O=CN1CCN(C(=O)c2cccc([N+](=O)[O-])c2)CC1`, the kinetic solubility is over 39.5 µg/mL.
Then `COCCNC(=O)[C@@H]1CSC2c3ccccc3C(=O)N21` (some centres not stated), with over 43.9 µg/mL; and `CCN1CCN(C(=S)NC(=O)c2cccs2)CC1`, with over 42.5 µg/mL; and `O=Cc1c(NCCN2CCCC2)c2ccccc2[nH]c1=O`, with over 42.8 µg/mL.
In turn, `Cc1cccc(C(=O)NC(=O)Nc2c(C)cc(C)nc2C)c1` registered a kinetic solubility of over 44.6 µg/mL.
The result for `Cc1ccc(C)c(N(CC(=O)N2CCCC2)S(C)(=O)=O)c1` reads 35.8 µg/mL (≈ 115 µM).
The result for `CC(Oc1ccccc1)C(=O)Nc1cccc([N+](=O)[O-])c1` (configuration not stated) reads over 42.9 µg/mL; that for `COc1ccc(S(N)(=O)=O)cc1C(=O)OCC(=O)Nc1sccc1C#N`, 15.1 µg/mL (≈ 38.2 µM); that for `Cn1c(SCC(=O)Nc2sccc2C(N)=O)nc2ccccc2c1=O`, 3.8 µg/mL (≈ 10.1 µM).
The result for `C/C(=N\NC(=O)c1cc(C)nc2ccccc12)c1ccco1` reads over 44 µg/mL; that for `COc1ccc(OCCn2ccnc2)cc1`, 26.4 µg/mL (≈ 121 µM).
On to `N#Cc1c(-c2ccncc2)cc(-c2ccc(F)cc2)nc1N`, for which the solubility (kinetic) turned out to be 0.5 µg/mL (≈ 1.72 µM).
In turn, `CC1CCC(NS(=O)(=O)c2ccc(Cl)nc2)CC1` (configuration not stated) had a solubility (kinetic) of 33.9 µg/mL (≈ 117 µM).
`COc1ccc(NC(=O)NCc2cccnc2)c(OC)c1` registered a kinetic solubility of over 43.1 µg/mL.
The result for `COCc1cc(=O)[nH]c(N2CCN(c3ccccc3OC)CC2)n1` reads 46.3 µg/mL (≈ 140 µM).
Then `Cc1ccc(-c2c[n+](CC(=O)Nc3ccc(C)cc3C)c3n2CCC3)cc1.[Cl-]`, with over 59.4 µg/mL; and `O=C(Nc1cccc([N+](=O)[O-])c1)C1C2CCCCC21` (configuration not stated), with 0.5 µg/mL (≈ 1.92 µM).
Turning to `Cc1ccc(N(Cc2ccccc2)C(=O)c2cccc(F)c2)cc1`, the kinetic solubility was 11.1 µg/mL (≈ 34.8 µM).
In the case of `O=[N+]([O-])c1cc(-c2ncccn2)c([N+](=O)[O-])s1`, the kinetic solubility amounted to 34.8 µg/mL (≈ 138 µM).
The result for `CCOC(=O)C(O)C1CCc2c([nH]c3ccc(C)cc23)C1=O` (configuration not stated) reads 22.6 µg/mL (≈ 75 µM); that for `CS(=O)(=O)Nc1ccccc1C(=O)NCCSc1ccc(Cl)cc1`, 33.8 µg/mL (≈ 87.8 µM).
Then `CN(CC(=O)Nc1cccc(F)c1)C(=O)COc1ccc2c(c1)CCC2`, with 1.9 µg/mL (≈ 5.33 µM); and `O=C1CCCN1CC(O)CS(=O)(=O)Cc1ccccc1` (configuration not stated), with over 44.6 µg/mL; and `Cc1ccccc1OCC(=O)OCC(=O)Nc1ccc(Cl)cn1`, with 47.2 µg/mL (≈ 141 µM).
Then `CC(=O)C1=C(O)C(=O)N(Cc2ccco2)C1c1ccccc1F` (configuration not stated), with over 47.3 µg/mL; and `COc1ccc(/C=C/C(=O)NC(=S)N2CCCCC2)cc1OC`, with over 50.2 µg/mL; and `O=C(NCc1cccnc1)C1CCC(c2ccc(Cl)cc2)CC1` (configuration not stated), with 14.9 µg/mL (≈ 45.3 µM).
`O=C(O)c1cc([N+](=O)[O-])ccc1NCc1cccnc1` had a kinetic solubility of over 41 µg/mL.
In turn, `Nc1nc(NCc2ccccc2)nc(NCCO)c1[N+](=O)[O-]` displayed a solubility (kinetic) of 43.4 µg/mL (≈ 143 µM).
Then `Cc1cc(C)nc(NC(=O)CSc2ncccn2)n1`, with over 41.3 µg/mL; and `CC(=O)c1ccc(S(=O)(=O)Nc2ccc3c(c2)OCO3)cc1`, with over 47.9 µg/mL.
The result for `COc1ccc(/C=C/C(=O)O)cc1S(=O)(=O)NCc1ccccc1` reads 49.6 µg/mL (≈ 143 µM); that for `Cc1ccc2ccc(C)[n+](CCCS(=O)(=O)[O-])c2c1`, 12.4 µg/mL (≈ 44.4 µM).
Then `Cc1ccc(C(=O)Nc2ccc3c(c2)OCCO3)c(C)c1`, with over 42.5 µg/mL; and `COc1ccc(C(C)=O)cc1CC(=O)NC1CCCCCC1`, with 39.2 µg/mL (≈ 129 µM); and `CCCNc1nc2c(c(=O)[nH]c(=O)n2C)n1CCOc1ccccc1`, with 4 µg/mL (≈ 11.6 µM).
`Cc1nc2ccccc2nc1OCc1cccc([N+](=O)[O-])c1`: the solubility (kinetic) came to 2 µg/mL (≈ 6.77 µM).
Regarding `Cc1cc(C)c(S(=O)(=O)Nc2nccs2)c(C)c1`, the solubility (kinetic) amounted to 36.1 µg/mL (≈ 128 µM).
Then `Nc1ccccc1C(=O)N1CCC(O)(c2ccc(Cl)cc2)CC1`, with 23.9 µg/mL (≈ 72.2 µM); and `CSC1=NC2(C)CCCCC2C12C=CC(=O)C=C2` (configuration not stated), with over 39.2 µg/mL.
In the case of `Cc1cccc(Nc2nc(N3CCOCC3)nc(N3CCOCC3)n2)c1`, the kinetic solubility came to 34.9 µg/mL (≈ 97.9 µM).
Then `N#Cc1ccc(-c2cccnc2)nc1SCC(N)=O`, with 38.2 µg/mL (≈ 141 µM); and `COc1cccc(NC(=O)NCCCCc2ccccc2)c1`, with 12.9 µg/mL (≈ 43.2 µM).
